“And” between values parts separate entries of the source, which are not always exact repeats. Identical values can stand only once.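 48-hour exposure; five concentrations; linearly interpolated endpoints. GI50: concentration for 50% inhibition of growth.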 The source made the active and inactive calls. No stated cut-off is given here; in the data, active = GI50 up to about 1.1 µM and inactive = higher.
How the values were obtained:
Assay in all cases: NCI-60 cell line screen, 48 h
[1] = test system: A549
[2] = test system: EKVX
[3] = test system: MDA-N
[4] = test system: SF-539
[5] = test system: MCF7
[6] = test system: NCI-H522
[7] = test system: MDA-MB-231
[8] = test system: LOX IMVI
[9] = test system: Malme-3M
[10] = test system: SW-620
[11] = test system: A498
[12] = test system: RPMI-8226
[13] = test system: NCI-H226
[14] = test system: SNB-19
[15] = test system: UACC-257
[16] = test system: OVCAR-8
[17] = test system: OVCAR-5
[18] = test system: SR
[19] = test system: HOP-62
[20] = test system: T47D

SMILES	GI50 [1]	GI50 [2]	GI50 [3]	GI50 [4]	GI50 [5]	GI50 [6]	GI50 [7]	GI50 [8]	GI50 [9]	GI50 [10]	GI50 [11]	GI50 [12]	GI50 [13]	GI50 [14]	GI50 [15]	GI50 [16]	GI50 [17]	GI50 [18]	GI50 [19]	GI50 [20]
CC(C)C1(Cl)CCC2C3(C)CCCC(C)(C(=O)O)C3CC(Cl)C2(Cl)C1Cl (centres undefined)	23.5 µM (inactive)	21.5 µM (inactive)	32.4 µM (inactive)	21.7 µM (inactive)	30.5 µM (inactive)	20 µM (inactive)	33.3 µM (inactive)	33.8 µM (inactive)	25.5 µM (inactive)	24.8 µM (inactive)	41.7 µM (inactive)	20.8 µM (inactive)	20.9 µM (inactive)	34.8 µM (inactive)	31.1 µM (inactive)	38.7 µM (inactive)	22.4 µM (inactive)	25.6 µM (inactive)	–	–
OC1(c2ccc(-c3ccccc3)cc2)c2ccccc2C2=NCCN21 (centres undefined)	84.9 µM (inactive)	–	> 100 µM (inactive)	–	–	–	56.1 µM (inactive)	34.8 µM (inactive)	–	45.4 µM (inactive)	31.6 µM (inactive)	29 µM (inactive)	18.3 µM (inactive)	15.4 µM (inactive)	36.1 µM (inactive)	–	–	33.8 µM (inactive)	16.6 µM (inactive)	86.9 µM (inactive)
Cc1nn(C)c(=O)c2nn(-c3ccccc3)c(C)c12	> 100 µM (inactive)	> 100 µM (inactive)	–	> 100 µM (inactive)	–	> 100 µM (inactive)	–	> 100 µM (inactive)	> 100 µM (inactive)	> 100 µM (inactive)	> 100 µM (inactive)	> 100 µM (inactive)	> 100 µM (inactive)	> 100 µM (inactive)	> 100 µM (inactive)	> 100 µM (inactive)	> 100 µM (inactive)	> 100 µM (inactive)	> 100 µM (inactive)	–
COC(=O)C(C(=O)C(=O)Nc1ccc([N+](=O)[O-])cc1)c1nc2cc(C)c(C)cc2nc1O (centres undefined)	> 100 µM (inactive)	> 100 µM (inactive)	–	> 100 µM (inactive)	–	> 100 µM (inactive)	–	> 100 µM (inactive)	> 100 µM (inactive)	> 100 µM (inactive)	> 100 µM (inactive)	> 100 µM (inactive)	> 100 µM (inactive)	> 100 µM (inactive)	> 100 µM (inactive)	–	> 100 µM (inactive)	> 100 µM (inactive)	> 100 µM (inactive)	–
CC(=O)CC(=O)Nn1c(-c2cccs2)nc2ccc(I)cc2c1=O	> 64.3 µM (inactive)	> 37.7 µM (inactive)	> 100 µM (inactive)	–	> 54.2 µM (inactive)	> 49.5 µM (inactive)	–	> 46.5 µM (inactive)	> 52.6 µM (inactive)	> 52.7 µM (inactive)	–	> 57.9 µM (inactive)	> 42.3 µM (inactive)	> 68.2 µM (inactive)	33 µM (inactive)	> 57.3 µM (inactive)	> 55.1 µM (inactive)	> 100 µM (inactive)	> 66.4 µM (inactive)	> 62.1 µM (inactive)
COc1cc(C(=O)OCCn2[nH]c(-c3ccc(Cl)cc3)nc2=S)cc(OC)c1OC	98.6 µM (inactive)	91.6 µM (inactive)	49 µM (inactive)	60.8 µM (inactive)	> 100 µM (inactive)	27.7 µM (inactive)	> 100 µM (inactive)	72.4 µM (inactive)	45.5 µM (inactive)	> 100 µM (inactive)	> 100 µM (inactive)	–	58.7 µM (inactive)	> 100 µM (inactive)	44.1 µM (inactive)	90.8 µM (inactive)	> 100 µM (inactive)	37.8 µM (inactive)	> 100 µM (inactive)	–
O=c1oc2ccc3ccccc3c2cc1-c1nc2ccccc2s1	> 23.1 µM (inactive)	> 100 µM (inactive)	> 100 µM (inactive)	> 100 µM (inactive)	–	> 100 µM (inactive)	> 100 µM (inactive)	> 100 µM (inactive)	> 100 µM (inactive)	> 100 µM (inactive)	> 100 µM (inactive)	–	> 100 µM (inactive)	–	> 100 µM (inactive)	> 100 µM (inactive)	> 100 µM (inactive)	–	> 100 µM (inactive)	> 66.7 µM (inactive)
COc1cc(-c2oc3c(OC)c(OC)cc(O)c3c(=O)c2OC)ccc1O [TERNATIN]	14.9 µM (inactive)	11.4 µM (inactive)	15.2 µM (inactive)	6.18 µM (inactive) and 7.5 µM (inactive)	21.1 µM (inactive)	–	15.2 µM (inactive)	–	13.1 µM (inactive) and 9.59 µM (inactive)	–	–	–	–	41.6 µM (inactive) and 49.8 µM (inactive)	> 100 µM (inactive)	20.7 µM (inactive)	34.6 µM (inactive)	–	–	8.32 µM (inactive)
CCc1cccc(C(C)C)c1NC(=O)/C(=N\NC(N)=O)C(C(=O)OC)c1cnc2ccccc2n1 (centres undefined)	24.8 µM (inactive)	> 100 µM (inactive)	–	52.7 µM (inactive)	–	24.9 µM (inactive)	–	34.8 µM (inactive)	34.4 µM (inactive)	39.5 µM (inactive)	> 100 µM (inactive)	–	50.5 µM (inactive)	51.3 µM (inactive)	32.1 µM (inactive)	54.1 µM (inactive)	> 100 µM (inactive)	46.5 µM (inactive)	40.6 µM (inactive)	–
CC[C@]1(Cc2ccc(OC)c(OC)c2)C=[N+]([O-])O[C@H](OC2CCCC2(c2ccccc2)c2ccccc2)[C@@H]1OC(=O)C(C)(C)C (some centres undefined)	3.11 µM (inactive)	4.61 µM (inactive)	–	–	2.74 µM (inactive)	1.61 µM (inactive)	5.56 µM (inactive)	1.95 µM (inactive)	–	10.1 µM (inactive)	–	–	3.27 µM (inactive)	3.84 µM (inactive)	3.5 µM (inactive)	2.19 µM (inactive)	8.71 µM (inactive)	7.93 µM (inactive)	2.49 µM (inactive)	2.49 µM (inactive)
COc1ccc(CN=C(N)N)c2ccccc12	43.1 µM (inactive)	21.1 µM (inactive)	38.5 µM (inactive)	19.2 µM (inactive)	36.7 µM (inactive)	34.3 µM (inactive)	–	24.8 µM (inactive)	17.1 µM (inactive)	41.2 µM (inactive)	–	31.6 µM (inactive)	27.4 µM (inactive)	18.4 µM (inactive)	47 µM (inactive)	38.8 µM (inactive)	22.8 µM (inactive)	–	0.78 µM (active)	31.9 µM (inactive)
[N-]=[N+]=NCN1C(=O)C2C3C=CC(C2C1=O)C1C2C(=O)N(CN=[N+]=[N-])C(=O)C2C31 (centres undefined)	> 100 µM (inactive)	> 100 µM (inactive)	> 100 µM (inactive)	> 100 µM (inactive)	> 100 µM (inactive)	> 100 µM (inactive)	–	> 100 µM (inactive)	–	> 100 µM (inactive)	–	> 100 µM (inactive)	–	> 100 µM (inactive)	> 100 µM (inactive)	> 100 µM (inactive)	–	–	> 100 µM (inactive)	> 100 µM (inactive)
C#CCNC(CCCNC(=N)N)C(=O)O (centres undefined)	> 100 µM (inactive)	> 100 µM (inactive)	–	–	–	> 100 µM (inactive)	> 100 µM (inactive)	> 100 µM (inactive)	> 100 µM (inactive)	> 100 µM (inactive)	> 100 µM (inactive)	> 100 µM (inactive)	> 100 µM (inactive)	> 100 µM (inactive)	> 100 µM (inactive)	> 100 µM (inactive)	> 100 µM (inactive)	> 100 µM (inactive)	> 100 µM (inactive)	> 100 µM (inactive)
CC(=O)O[C@H]1C(=O)[C@@]2(C)[C@H]([C@H](OC(=O)c3ccccc3)[C@]3(O)C[C@H](OC(=O)[C@H](O)[C@@H](NC(=O)C(C)(C)C)c4ccccc4)C(C)=C1C3(C)C)[C@]1(OC(C)=O)CO[C@@H]1C[C@@H]2O	0.0809 µM (active)	1.87 µM (inactive)	0.022 µM (active)	0.0585 µM (active)	0.031 µM (active)	0.0306 µM (active)	5.93 µM (inactive)	0.0542 µM (active)	0.165 µM (active)	0.0459 µM (active)	–	0.0305 µM (active)	0.428 µM (active)	2.35 µM (inactive)	0.127 µM (active)	0.0668 µM (active)	0.508 µM (active)	0.0405 µM (active)	0.215 µM (active)	–
NC(=O)C#CC#CC#CCO	4.39 µM (inactive)	1.68 µM (inactive)	–	–	–	0.15 µM (active)	–	2.09 µM (inactive)	1.96 µM (inactive)	1.51 µM (inactive)	4.4 µM (inactive)	2.05 µM (inactive)	11.6 µM (inactive)	14.9 µM (inactive)	2.33 µM (inactive)	1.81 µM (inactive)	18.9 µM (inactive)	2.47 µM (inactive)	10.9 µM (inactive)	–
O=C(NCc1cccc2ccccc12)N/N=C\c1ccc(Cl)cc1	–	36.1 µM (inactive)	9.82 µM (inactive)	> 100 µM (inactive)	43.3 µM (inactive)	36.6 µM (inactive)	–	> 100 µM (inactive)	> 100 µM (inactive)	88.3 µM (inactive)	–	77.1 µM (inactive)	> 100 µM (inactive)	> 100 µM (inactive)	> 100 µM (inactive)	> 100 µM (inactive)	> 100 µM (inactive)	> 100 µM (inactive)	> 100 µM (inactive)	> 100 µM (inactive)
[N-]=[N+]=NC1C2CC3C4CC5CC3[C@H](C2)C(C5)C41 (some centres undefined)	> 100 µM (inactive)	> 100 µM (inactive)	–	> 100 µM (inactive)	–	> 100 µM (inactive)	–	> 100 µM (inactive)	> 100 µM (inactive)	> 100 µM (inactive)	> 100 µM (inactive)	> 100 µM (inactive)	75.3 µM (inactive)	> 100 µM (inactive)	> 100 µM (inactive)	> 100 µM (inactive)	> 100 µM (inactive)	> 100 µM (inactive)	> 100 µM (inactive)	–
